Target: T1, LPAAT-β (Homo sapiens, UniProt O15120)
T1 construct: the full-length human LPAAT-β cDNA was amplified by PCR from the DNA template pCE9.LPAAT-β; poly-histidine tag (N); made in house; host or cells: Sf9 insect cells (baculovirus, pFastBac HTc); membrane fraction used
T1 sequence (O15120 24-278): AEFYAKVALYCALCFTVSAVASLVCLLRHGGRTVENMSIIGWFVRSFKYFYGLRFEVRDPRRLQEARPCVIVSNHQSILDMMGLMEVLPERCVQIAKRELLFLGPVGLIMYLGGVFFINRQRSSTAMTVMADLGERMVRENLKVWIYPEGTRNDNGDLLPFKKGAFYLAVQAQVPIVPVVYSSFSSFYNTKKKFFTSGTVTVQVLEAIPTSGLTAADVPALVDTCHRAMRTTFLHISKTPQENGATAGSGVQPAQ
Assay: LPAAT-β cell-free assay
Assay type: biochemical
Conditions: Sf9 cell membrane overexpressing recombinant LPAAT-β
Description: For the construction of Baculovirus expression vectors, the full-length human LPAAT-β cDNA was amplified by PCR from the DNA template pCE9.LPAAT-β (West et at., DNA Cell Biol. 16:691-701 (1997)) using the primers 5′-[…] ATGGAGCTGTGGCCGTCTC-3′ (olpb1F; SEQ ID NO:1) and 5′-CAGGCTCTAG ACTACTGGGCCGGCTGCAC-3′ (olpb1R; SEQ ID NO:2). The ˜870 bp fragment generated was reamplified by PCR using the primers 5′[…] TCCGAAGAAGATC-3′ (olpb2F; SEQ ID NO:3) and 5′-CAGGCTCTAGCTACTGGGC CGGCTGCAC-3′ (olpb1R; SEQ ID NO:2). The ˜890 bp fragment generated as then cleaved with Sal I and Xba I for insertion into pFastBac™ HTc vector (Life Technologies, Gaithersberg, Md.) between the Sal I and Xba I sites for the generation of the plasmid pFB.LPAAT-β. This plasmid was then transformed into E. coli DH10Bac™ (Life Technologies, Gaithersberg, Md.) for the generation of recombinant Bacmid DNA for transfection in HighFive (Invitrogen, San Diego, Calif.) or SF9 insect cells for the production of recombinant Baculovirus stocks using the protocol described in the Bac-to-Bac® Baculovirus Expression System (Life Technologies, Gaithersberg, Md.), a eukaryotic expression system for generating recombinant baculovirus through site-specific transposition in E. coli. Viral stocks harvested from the transfected cells can then be used to infect fresh insect cells for the subsequence expression of LPAAT-β fusion protein with a poly-histidine tag and a myc-epitope near its N-terminus. The membrane fraction from these Sf9 cells would be the source of LPAAT enzyme.
For the preparation of membranes from Sf9 Cells, all steps are performed on ice or at 4° C. Sf9 cell pellets (˜10^8 cells) were thawed and resuspended in 1-2 ml of buffer A (20 mM Hepes, pH 7.5, 1 mM DTT, 1 mM EDTA, 20% w/v glycerol, 1 mM Benzamidine, 1 μg/ml soybean trypsin inhibitor (SBTI), 1 μg/ml pepstatin A) w/o DTT but with 1 mM Pefabloc. The cells were lysed by sonication using a Branson Sonifier at output=2, duty cycle=2, 10 pulses each at 10 s. with the tip of small sonicator probe submerged but not touching the walls. DTT was then added to 1 mM from a 1 M stock. The samples were centrifuged at 1500 rpm for 5 min. The low speed supernatant was saved and centrifuged (TLA 100.3 rotor, polycarbonate tubes, 2 ml/tube or 1.5 ml/tube minimum) at 100000×g for 1 hr. The high speed pellet was resuspend in Buffer A with a probe sonicator (10 pulses @ output #2 and duty cycle 20%) as a source of LPAAT enzyme.
LPAAT-β catalyzes the transfer of an acyl group from a donor such as acyl-CoA to LPA. The transfer of the acyl group from acyl-CoA to LPA leads to the release of free CoA, which can be reacted with the thiol reagent, 5,5′-dithiobis(2-nitrobenzoic acid) (DTNB). The reaction between DTNB and the free sulfhydryl group from CoA generates a yellow-colored product, 3-carboxylato-4-nitrothiophenolate (CNP), that absorbs at 413 nm. LPAAT-β derived from Sf9 cell membrane overexpressing LPAAT-β were resuspended in HEPES saline buffer (20 mM HEPES pH 7.5, 150 mM NaCl), 1 mg/ml BSA and 72 μl aliquots were distributed into 96-well microtiter plates. 8 μl of compound of interest at 200 μM dissolved in 100% DMSO was added into each well. 20 μl of 1 mM 18:1-CoA and 1 mM sn-1-18:1 lysoPA was then added to each well to initiate the reaction and allowed to run at room temperature for 25 min. 100 μl of 1 mM DTNB in 100% ethanol was then added to each well to quench the reaction and for color development. The absorbance at 405 nm, measured using a spectrophotometer plate reader, is proportional to the activity of LPAAT-β in the sample. This colorimetric assay was used for the high throughput screening of LPAAT inhibitors.
The radiometric assay was carried out in Sf9 cell membrane overexpressing LPAAT-β resuspended in HEPES-saline buffer, pH 7.5, 1 mg/ml BSA, 1 mM EDTA and 200 μM [^14C]18:1-CoA and 200 μM sn-1-18:1 lysoPA. […]

Q: COc1ccc(Cl)cc1-c1cc(Nc2ccc(Cl)cc2)cc(N)n1 [Example 7, 6-(5-Chloro-2-methoxy-phenyl)-N*4*-(4-chloro-phenyl)-pyridine-2,4-diamine] was tested. Which IC50 did it give?
A: 18000 nM

Q: With COc1ccc(Cl)cc1-c1cc(N)nc(Nc2ccc(Cl)cc2)c1 [Example 8, 4-(5-Chloro-2-methoxy-phenyl)-N-(4-chloro-phenyl)-pyridine-2,6-diamine] as the compound, how does the IC50 read?
A: 40 nM

Q: How did the IC50 turn out when COc1ccc(Cl)cc1-c1cc(N)nc(Nc2ccc(C=O)cc2)c1 [Example 14, 4-[6-Amino-4-(5-chloro-2-methoxy-phenyl)-pyridin-2-ylamino]-benzaldehyde] was run?
A: 260 nM

Q: For CCOc1ccc(Cl)cc1-c1cc(N)nc(Nc2ccc(C=O)cc2)c1 [Example 12, 4-[6-Amino-4-(5-chloro-2-ethoxy-phenyl)-pyridin-2-ylamino]-benzaldehyde], which IC50 is on record?
A: 50 nM

Q: How did the IC50 turn out when CCOc1ccc(Cl)cc1-c1cc(N)nc(Nc2ccc(Cl)cc2)c1 [Example 11, 4-(5-Chloro-2-ethoxy-phenyl)-N-(4-chloro-phenyl)-pyridine-2,6-diamine] was run?
A: 50 nM

Q: For COc1ccc(Cl)cc1-c1cc(Nc2ccc(C)cc2)cc(Cl)n1 [Example 1, [2-Chloro-6-(5-chloro-2-methoxy-phenyl)-pyridin-4-yl]-p-tolyl-amine], which IC50 is on record?
A: 200 nM

Q: With COc1ccc(Cl)cc1-c1cc(Nc2ccc(C)cc2)cc(N)n1 [Example 6, 6-(5-Chloro-2-methoxy-phenyl)-N*4*-p-tolyl-pyridine-2,4-diamine] as the compound, how does the IC50 read?
A: 35000 nM

Q: COc1ccc(Cl)cc1-c1cc(N)nc(Nc2ccc(C)cc2)c1 [Example 9] was tested. Which IC50 did it give?
A: 240 nM

Q: How did the IC50 turn out when CCOc1ccc(Cl)cc1-c1cc(N)nc(Nc2ccc(C)cc2)c1 [Example 10] was run?
A: 490 nM

Q: With COc1ccc(Cl)cc1-c1cc(Nc2ccc(C)cc2)cc(NC(C)=O)n1 [Example 5, N-[6-(5-chloro-2-methoxy-phenyl)-4-p-tolylamino-pyridin-2-yl]-acetamide] as the compound, how does the IC50 read?
A: 34000 nM

Q: Which IC50 does the source give for COc1ccc(Cl)cc1-c1cc(N)cc(Nc2ccc(C)cc2)n1 [Example 3, 6-(5-Chloro-2-methoxy-phenyl)-N*2*-p-tolyl-pyridine-2,4-diamine] here?
A: 29000 nM

Q: With COc1ccc(Cl)cc1-c1cc(Cl)cc(Nc2ccc(C)cc2)n1 [Example 2, [4-Cloro-6-(5-chloro-2-methoxy-phenyl)-pyridin-2-yl]-p-tolyl-amine] as the compound, how does the IC50 read?
A: > 40000 nM

Q: How did the IC50 turn out when CCOc1ccc(Cl)cc1-c1cc(N)nc(Nc2ccc(CO)cc2)c1 [Example 13, {4-[6-Amino-4-(5-chloro-2-ethoxy-phenyl)-pyridin-2-ylamino]-phenyl}-methanol] was run?
A: 100 nM

Q: With COc1ccc(Cl)cc1-c1cc(N)cc(Nc2ccc(Cl)cc2)n1 [Example 4, 6-(5-Chloro-2-methoxy-phenyl)-N*2*-(4-chloro-phenyl)-pyridine-2,4-diamine] as the compound, how does the IC50 read?
A: 6500 nM
